The data set is described as follows: Human HepG2 cell viability assay in 384 well format. Format: toxicity, cell-based. On the set-up: dose 125 nL, time 70.5 hour; concentration not given beside the values. Conditions: HepG2 cells, read-out: Inhibition.
For the compound `O=C(c1cscn1)N1CCC2(CCCN(CCOc3ccccc3)C2)C1` (stereo unspecified), the cytotoxicity at 70.5 h was -19.6%.
Then `Cc1ccc(CN2C[C@H]3C[C@H](C(=O)NCC4CC4)N(C)[C@H]3C2)o1`, with -12.6%; and `Cc1ccc(C(=O)N2CCC3(CCC(C(=O)NCC4CC4)O3)CC2)o1` (stereo unspecified), with -12.5%; and `CC[C@@H]1N(Cc2cc(OC)cc(OC)c2)CCC[C@]12CCC(=O)N2C`, with -16.6%.
The same measure for `CN(C)CC(=O)N1CCC2(CC1)CN(Cc1cccnc1)C(=O)CO2`: 17.2%; for `COCCN1CCC2(CCN(C(=O)c3ccc(F)cc3)CC2)C1=O`: 18.4%; for `O=C(NC1CC1)N1CC[C@@H](O)[C@@H]1Cc1ccccc1`: 0.741%.
Turning to `NC(=O)N1CC[C@H](O)[C@@H]1Cc1ccccc1`, the cytotoxicity at 70.5 h was -8.95%.
The same measure for `CN(C)CCN1C(=O)CCC12CCN(C(=O)CC1CC1)CC2`: -6.33%; for `COCCNC(=O)c1ccc2ccc(N(C)CC3CC3)n2c1`: -5.92%; for `COCC(=O)N1CCN(C)c2ncccc2C1`: -0.482%.
Then `CN(C)C(=O)N1CCN(C)c2ncccc2C1`, with -7.19%; and `Cc1csc([C@H]2C[C@@H]3CCN(Cc4cnn(C)c4)C[C@H]3O2)n1`, with -7.09%; and `O=C(c1cccs1)N1CCCn2c(nc(CN3CCCC3)cc2=O)C1`, with -0.229%.
The same measure for `O=C(c1ccoc1)N1C[C@H]2CC[C@@]3(N=C(c4ccccc4)NC3=O)[C@H]2C1`: 0.375%.
On to `Cc1cccc(CN2C[C@@H]3CN(C(=O)c4ccnnc4)C[C@@H]3C2=O)c1`, for which the cytotoxicity at 70.5 h was -2.38%.
Then `CC(=O)N1CCOC2(CCCN(Cc3ccc(N(C)C)cc3)C2)C1` (stereo unspecified), with -2.02%; and `CC(=O)NCC(=O)NCC1Cn2nnc(-c3cccc(F)c3)c2CO1` (stereo unspecified), with -0.435%; and `CCN1C[C@@H]2CN(C(=O)c3ccsc3)C[C@@H]2C1=O`, with -0.46%.
Take `Cc1cccc(CN2CCCC3(CCN(c4cccnc4)C3=O)C2)n1` (stereo unspecified): the cytotoxicity at 70.5 h is -3.53%.
Then `Cc1cccc(CN2C[C@@H]3CN(C(=O)c4conc4C)C[C@@H]3C2=O)c1`, with -3.16%.
The same measure for `CC(=O)N1CC2(CCN(C(=O)c3ccoc3)C2)C1`: -2.66%; for `CC(=O)N1[C@H](Cn2cncn2)C[C@@H]2CN(c3ncccn3)CC[C@@H]21`: 1.33%.
Then `O=C(c1ccnnc1)N1CC[C@H](OCC2CC2)[C@@H]1Cc1ccncc1`, with -1.15%; and `Cc1ncnc2c1CCN(C(=O)c1cnccn1)CC2`, with -0.588%; and `O=C(C1CC=CC1)N1CCC2(CCC(=O)N2Cc2cccc(F)c2)CC1`, with 2.09%.
In the case of `CO[C@@H]1CCN(c2ncccn2)[C@H]1Cc1ccccc1`, the cytotoxicity at 70.5 h was determined as 1.42%.
Turning to `CN1CCN(Cc2cn3c(n2)CN(C(=O)c2ccco2)CC3)CC1`, the cytotoxicity at 70.5 h is 1.76%.
As to `COCCN1C[C@H]2CCN(c3ncccn3)CC[C@H]2S1(=O)=O`, the cytotoxicity at 70.5 h was -3.17%.
For `O=C(C1CC=CC1)N1CCC2(CCN(Cc3cccc(F)c3)CC2)C1`, the cytotoxicity at 70.5 h was -3.05%.
The same measure for `CCN(CC)CCN1CCO[C@H]2[C@@H](OCc3ccccn3)CC[C@@H]21`: -4.9%; for `Cc1ccc(CN2CCOC3(CCCN(C(=O)c4ccco4)C3)C2)o1` (stereo unspecified): -5.05%; for `O=C(C1CC=CC1)N1CCc2ncnc(-c3ccncc3)c2CC1`: 0.995%.
Then `COCC(=O)N1CC[C@@H]2CN(Cc3ccccc3)S(=O)(=O)[C@@H]2CC1`, with -5.37%; and `O=C(c1ccccc1F)N1CC2(CCNCC2)c2cc(Cl)ccc21`, with -9.74%; and `COC(=O)N1CC2(CCNCC2)c2cc(Cl)ccc21`, with -7.27%.
The same measure for `C[C@@H](N)C(=O)N1CC2(CCNCC2)c2cc(Cl)ccc21`: 0.763%.
Regarding `COc1ccc(CN2CCC3(CC2)CC(CC(=O)NC(C)C)CO3)cc1` (stereo unspecified), the cytotoxicity at 70.5 h is -14.4%.
Then `CN(C)C(=O)N1CCC2(CCCN(CCOc3ccccc3)C2)C1` (stereo unspecified), with -14.6%; and `Cn1cccc1C(=O)N1CCC2(CC1)CC(N1CCOCC1)C2`, with -12.5%; and `CN(C)C(=O)CN1C(=O)CCC12CCN(Cc1cccs1)CC2`, with 9.34%.
Then `O=C(C1CCCO1)N1C[C@@H]2CCN(c3cnccn3)C[C@@H]2C1` (stereo partly specified), with -9.71%; and `O=C(c1cccc(F)c1)N1CCC2(CC1)CC(N1CCOCC1)C2`, with -14.8%.
Then `CC[C@@H]1N(Cc2ccc(C)s2)CCC[C@]12CCC(=O)N2C`, with -11.2%.
For `CN(C)CCN1CCC2(CCN(C(=O)c3cccc(F)c3)CC2)C1=O`, the cytotoxicity at 70.5 h stood at 15.4%.
The same measure for `CC(=O)N1CCN(Cc2nccs2)CC2(CC(=O)N(C)C2)C1` (stereo unspecified): -11.2%; for `CC(=O)N1CCN(Cc2cccs2)CC2(CC(=O)N(C)C2)C1` (stereo unspecified): -9.26%.
The same measure for `COc1cccc(CN2CCC3(CC2)CCN(C(=O)[C@@H]2CCCO2)C3)c1`: -8.83%; for `CCN1CCC2(CCN(c3ncccn3)CC2)C1=O`: -8.88%.
The same measure for `O=C(CC1CC1)N1CCC2(CC1)CN(Cc1cccnc1)C(=O)CO2`: -12.2%; for `Cc1noc(C)c1CN1CCCC2(CCN(CC3CCCC3)C2)C1` (stereo unspecified): -3.39%; for `c1ccc(N2CCCC3(CCN(Cc4ccsc4)C3)C2)nc1` (stereo unspecified): -7.47%.
Regarding `Cc1cnc(N2CCC3(CCN(CC4CCCC4)C3=O)CC2)nc1`, the cytotoxicity at 70.5 h was -11%.
Then `O=C1N(CC2CCCC2)CCC12CCN(c1ncc(F)cn1)CC2`, with -7.22%; and `CCN1CCOCC12CCN(C(=O)C1CCCC1)CC2`, with -0.25%; and `C[C@@H]1C(=O)NC[C@H]2CN(Cc3ccc4c(c3)OCO4)C[C@H]21`, with -10.2%.
For `C[C@H]1C(=O)NC[C@H]2CN(CCc3ccccc3)C[C@H]21`, the cytotoxicity at 70.5 h is -9.77%.
The same measure for `Cc1occc1C(=O)N1CCC2(CCCN(Cc3cccs3)C2)C1` (stereo unspecified): 0.121%; for `COc1cccc(CC(=O)N2CCN(C)c3ncccc3C2)c1`: 1.87%; for `COCC1CN(Cc2ccc(OC)cc2)Cc2nnn(CC3CC3)c21` (stereo unspecified): -4.99%.
`Fc1cccc(-c2nnn3c2COC(CNCc2ccsc2)C3)c1` (stereo unspecified): the cytotoxicity at 70.5 h came out at 0.277%.
Then `CNC(=O)[C@H]1C[C@@H]2CN(S(=O)(=O)c3cccc(C)c3)C[C@@H]2N1C`, with 2.15%; and `CNC(=O)[C@H]1C[C@@H]2CN(S(=O)(=O)c3ccc(F)cc3)C[C@@H]2N1C`, with 5.56%; and `CNC(=O)[C@H]1C[C@@H]2CN(S(=O)(=O)c3ccc(C)cc3)C[C@@H]2N1C`, with -1.06%.
Then `CNC(=O)[C@H]1C[C@@H]2CN(S(=O)(=O)c3cccc(F)c3)C[C@@H]2N1C`, with 1.47%; and `CN(C)Cc1cc(=O)n2c(n1)CN(C(=O)Cc1cccs1)CCC2`, with 1.23%.
Then `Cc1ccc2c(c1)C1(CC2)CCN(CC(=O)O)CC1`, with 5.44%; and `O=C([C@H]1COC[C@H]2CN(C3CCCC3)C[C@H]21)N1CCCO1`, with 41.4%.
Take `CC1CCN(C(=O)[C@@H]2CC[C@@H]3[C@@H](CCN3c3ncc(F)cn3)O2)CC1`: the cytotoxicity at 70.5 h is -2.26%.
As to `O=C(c1ccc[nH]1)N1CC[C@@H](OCC2CC2)[C@@H]1Cc1cccnc1`, the cytotoxicity at 70.5 h worked out at 0.146%.
The same measure for `COCC(=O)N1CC[C@@H](OCC2CC2)[C@@H]1Cc1cccnc1`: 0.787%; for `O=C([C@@H]1COC[C@H]2CN(C3CCOCC3)C[C@H]21)N1CCOCC1`: -1.42%; for `CC(C)CN1CCC2(CCN(Cc3nccs3)CC2)C1=O`: 0.492%.
Then `COCC(=O)N1C[C@H]2CCCC(OCc3cccnc3)[C@H]2C1` (stereo partly specified), with -6.29%.
The same measure for `CN(C)CCN1CCCC12CCN(C(=O)c1ccco1)CC2`: -6.82%; for `CNC(=O)[C@@H]1C[C@H]2CN(Cc3ccc(C)s3)C[C@H]2N1C(C)=O`: -1.67%.
On to `Cc1ccccc1C(=O)N1CCC2(CCCN2CCN(C)C)CC1`, for which the cytotoxicity at 70.5 h is -9.86%.
The same measure for `Cc1cccc(CN2C(=O)CCC23CCNCC3)n1`: -9.48%; for `O=C(Cc1cccnc1)N1CCC2(CC1)CCN(C1CCOCC1)CC2`: -5.53%; for `CN(C)C(=O)COCc1cncc2c1CCN(Cc1ccccc1)C2`: -3.3%.
As for `O=C(Cc1cccnc1)N1CCC2(CC1)CCN(C1CCOC1)C2` (stereo unspecified), the cytotoxicity at 70.5 h turned out to be 8.42%.
The same measure for `Cn1ccnc1CN1CCC2(CC1)CN(c1ccccn1)CCO2`: 8.31%; for `O=C1CC2(CCN(Cc3ccccn3)C2)CN1c1cccnc1` (stereo unspecified): 1.41%.
The same measure for `O=C1N(c2ccsc2)CCC12CCCN(Cc1ccccn1)C2` (stereo unspecified): -4.36%.
Then `Fc1ccc(CN2CCO[C@H]3[C@H](Oc4ccccn4)CC[C@@H]32)cc1`, with 7.26%; and `CC(=O)N1[C@H](Cn2cncn2)C[C@@H]2CN(Cc3ccccn3)CC[C@@H]21`, with 17.3%; and `CC(C)N(C)[C@@H]1CCN(c2ncccn2)[C@H]1Cc1ccncc1`, with 1.38%.
Regarding `CC(=O)N1[C@H](Cn2cncn2)C[C@@H]2CN(Cc3cccnc3)CC[C@@H]21`, the cytotoxicity at 70.5 h was -2.89%.
The same measure for `CN1CCN(Cc2ccncc2)C(=O)C12CCN(Cc1ccsc1)CC2`: 2.26%.
Then `Cc1cccc(CN2CCO[C@H]3[C@H](Oc4ccccn4)CC[C@@H]32)n1`, with -1.62%; and `CN1CCN(Cc2cn3c(n2)CN(C(=O)c2ccccn2)CC3)CC1`, with -2.89%.

Values taken from ChEMBL document CHEMBL3507680, “University of Dundee, Gates Library screen for HepG2 cell viability”.
